According to PubChem BioAssay (NCI):
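Five compound concentrations were applied to cells in 96-well plates for 48 hours; endpoints were derived by simple linear interpolation of the resulting dose-response curve. Here, GI50 denotes the concentration required for 50% inhibition of growth. TGI: total growth inhibition.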

Assays:
Experiment in all cases: growth of human tumour cells (NCI), 48 h
[1] = tested on: SNB-75 CNS
[2] = tested on: U251 CNS
[3] = tested on: NCI-H226 lung
[4] = tested on: MCF7 breast
[5] = tested on: HL-60(TB) leukemia
[6] = tested on: SK-OV-3 ovarian
[7] = tested on: 786-0 renal
[8] = tested on: LOX IMVI melanoma
[9] = tested on: CAKI-1 renal
[10] = tested on: HOP-62 NSCLC
[11] = tested on: SK-MEL-28 melanoma
[12] = tested on: UO-31 renal
[13] = tested on: A498 renal
[14] = tested on: UACC-62 melanoma
[15] = tested on: MDA-MB-435
[16] = tested on: SW-620 colon
[17] = tested on: SNB-19 CNS
[18] = tested on: HCT-15 colon
[19] = tested on: HCC-2998 colon
[20] = tested on: IGROV1 ovarian
[21] = tested on: HCT-116 colon
[22] = tested on: TK-10 renal
[23] = tested on: SK-MEL-2 melanoma
[24] = tested on: M14 melanoma
[25] = tested on: CCRF-CEM leukemia
[26] = tested on: HS 578T breast
[27] = tested on: A549 NSCLC
[28] = tested on: MOLT-4 leukemia
[29] = tested on: SK-MEL-5 melanoma
[30] = tested on: SN12C renal
[31] = tested on: UACC-257 melanoma
[32] = tested on: NCI/ADR-RES ovarian
[33] = tested on: COLO 205 colon
[34] = tested on: T-47D breast
[35] = tested on: RPMI-8226 leukemia
[36] = tested on: BT-549 breast
[37] = tested on: OVCAR-5 ovarian
[38] = tested on: NCI-H460 lung
[39] = tested on: OVCAR-3 ovarian
[40] = tested on: MDA-MB-231 breast
[41] = tested on: PC-3 prostate
[42] = tested on: KM12 colon
[43] = tested on: K-562 leukemia
[44] = tested on: ACHN renal
[45] = tested on: NCI-H522 lung
[46] = tested on: HOP-92 NSCLC
[47] = tested on: RXF 393 renal
[48] = tested on: DU-145 prostate
[49] = tested on: SR leukemia
[50] = tested on: SF-295 CNS
[51] = tested on: MALME-3M melanoma
[52] = tested on: SF-539 CNS
[53] = tested on: SF-268 CNS

## CC(=O)[O][Hg][c]1c(N)c(C)cc(C)c1F
[1]
  GI50: 1.6 µM
  TGI: 5.25 µM
[2]
  GI50: 0.672 µM
  TGI: 2.06 µM
[3]
  GI50: 16.2 µM
  TGI: 44.5 µM
[4]
  GI50: 0.665 µM
  TGI: 2.99 µM
[5]
  GI50: 1.44 µM
  TGI: 5.17 µM
[6]
  GI50: 4.36 µM
  TGI: 15.5 µM
[7]
  GI50: 1.79 µM
  TGI: 3.32 µM
[8]
  GI50: 0.833 µM
  TGI: 2.54 µM
[9]
  GI50: 3.4 µM
  TGI: 12.4 µM
[10]
  GI50: 2.75 µM
  TGI: 5.49 µM
[11]
  GI50: 1.37 µM
  TGI: 2.83 µM
[12]
  GI50: 1.64 µM
  TGI: 3.15 µM
[13]
  GI50: 5.35 µM
  TGI: 15.8 µM
[14]
  GI50: 1.5 µM
  TGI: 3.2 µM
[15]
  GI50: 1.48 µM
  TGI: 2.96 µM
[16]
  GI50: 1.44 µM
  TGI: 3.21 µM
[17]
  GI50: 1.99 µM
  TGI: 5.13 µM
[18]
  GI50: 1.01 µM
  TGI: 2.55 µM
[19]
  GI50: 2.28 µM
  TGI: 4.87 µM
[20]
  GI50: 0.939 µM
  TGI: 2.79 µM
[21]
  GI50: 1.88 µM
  TGI: 3.92 µM
[22]
  GI50: 1.87 µM
  TGI: 3.32 µM
[23]
  GI50: 1.56 µM
  TGI: 3.23 µM
[24]
  GI50: 1.55 µM
  TGI: 3.29 µM
[25]
  GI50: 0.401 µM
  TGI: > 24.3 µM
[26]
  GI50: 1.6 µM
  TGI: 6.85 µM
[27]
  GI50: 9.72 µM
  TGI: 28.8 µM
[28]
  GI50: 1.22 µM
  TGI: 7.12 µM
[29]
  GI50: 1.48 µM
  TGI: 2.88 µM
[30]
  GI50: 1.36 µM
  TGI: 2.72 µM
[31]
  GI50: 1.51 µM
  TGI: 2.96 µM
[32]
  GI50: 3.48 µM
  TGI: 23.6 µM
[33]
  GI50: 1.91 µM
  TGI: 3.53 µM
[34]
  GI50: 1.39 µM
  TGI: 4.47 µM
[35]
  GI50: 1.81 µM
  TGI: 6 µM
[36]
  GI50: 2.22 µM
  TGI: 5.29 µM
[37]
  GI50: 1.95 µM
  TGI: 3.67 µM
[38]
  GI50: 1.74 µM
  TGI: 4.3 µM
[39]
  GI50: 1.01 µM
  TGI: 2.28 µM
[40]
  GI50: 1.17 µM
  TGI: 2.64 µM
[41]
  GI50: 2.03 µM
  TGI: 6.61 µM
[42]
  GI50: 10.6 µM
  TGI: 22.7 µM
[43]
  GI50: 0.749 µM
  TGI: 4.03 µM
[44]
  GI50: 1.61 µM
  TGI: 3.08 µM
[45]
  GI50: 0.167 µM
  TGI: 0.344 µM
[46]
  GI50: 1.53 µM
  TGI: 2.92 µM
[47]
  GI50: 1.52 µM
  TGI: 2.88 µM
[48]
  GI50: 2.39 µM
  TGI: 7.14 µM
[49]
  GI50: 0.338 µM
[50]
  GI50: 7.92 µM
  TGI: 21.8 µM
[51]
  GI50: 1.63 µM
  TGI: 3.25 µM
[52]
  GI50: 1.57 µM
  TGI: 3.11 µM
[53]
  GI50: 1.22 µM
  TGI: 2.7 µM
